Experimental data as given in ChEMBL document CHEMBL1151552, “Inhibitory activities of herpes simplex viruses type 1 and 2 and human cytomegalovirus by stereoisomers of 2-deoxy-3-oxa-5(E)-(2-bromovinyl)uridines and their 4-thio analogues” (Bioorg Med Chem Lett, 1994).
Values after ≈ are worked out from the molar mass of the structure shown.

Experiments:
[1] = system: F2002 cell line; assay: Inhibitory activity against human cytomegalo virus (WFI strain) in a plaque reduction assay in flow 2002 human fibroblast cells; assay type: functional, cell-based
[2] = Cytotoxicity in Flow 2002 cell line; assay type: cell-based; settings: human, Flow 2002 cells
[3] = system: Vero; assay: Inhibitory activity against Herpes Simplex virus type 1 (186 strain) in a Plaque reduction Assay in vero cells; assay type: functional, cell-based; settings: Chlorocebus sabaeus
[4] = system: Vero; assay: Inhibitory activity against Herpes Simplex virus type 1 (KOS strain) in a Plaque reduction Assay in vero cells; assay type: functional, cell-based; settings: Chlorocebus sabaeus
[5] = system: Vero; assay: Cytotoxicity in Vero cell line; assay type: functional; settings: Chlorocebus sabaeus

| Compound | IC50 [1] [µg/mL] | CC50 [2] [µg/mL] | IC50 [3] [µg/mL] | IC50 [4] [µg/mL] | CC50 [5] [µg/mL] |
| --- | --- | --- | --- | --- | --- |
| O=c1[nH]c(=O)n([C@H]2CO[C@H](CO)S2)cc1/C=C/Br | > 100 | > 100 | 30 (≈ 89.5 µM) | > 30 | 100 (≈ 298 µM) |
| O=c1[nH]c(=O)n([C@H]2CO[C@@H](CO)O2)cc1/C=C/Br | > 100 | > 100 | > 30 | > 30 | 100 (≈ 313 µM) |
| O=c1[nH]c(=O)n([C@@H]2CO[C@@H](CO)S2)cc1/C=C/Br | 80 (≈ 239 µM) | 100 (≈ 298 µM) | > 10 | > 10 | 30 (≈ 89.5 µM) |
| O=c1[nH]c(=O)n([C@@H]2CO[C@H](CO)S2)cc1/C=C/Br | > 100 | 100 (≈ 298 µM) | > 100 | > 100 | > 100 |
| O=c1[nH]c(=O)n([C@@H]2CO[C@@H](CO)O2)cc1/C=C/Br | 25 (≈ 78.3 µM) | 100 (≈ 313 µM) | > 30 | > 30 | 100 (≈ 313 µM) |
| O=c1[nH]c(=O)n([C@@H]2CO[C@H](CO)O2)cc1/C=C/Br | 5 (≈ 15.7 µM) | 30 (≈ 94 µM) | > 30 | 0.3 (≈ 0.94 µM) | 100 (≈ 313 µM) |
| Nc1nc2c(ncn2COCCO)c(=O)[nH]1 [ACYCLOVIR] | – | – | 0.5 (≈ 2.22 µM) | 0.1 (≈ 0.444 µM) | > 10 |
| O=c1[nH]c(=O)n([C@H]2CO[C@H](CO)O2)cc1/C=C/Br | > 30 | 30 (≈ 94 µM) | > 30 | 3.4 (≈ 10.7 µM) | 100 (≈ 313 µM) |
| O=c1[nH]c(=O)n([C@H]2CO[C@@H](CO)S2)cc1/C=C/Br | > 100 | 100 (≈ 298 µM) | 2.9 (≈ 8.65 µM) | > 30 | 100 (≈ 298 µM) |
| Nc1nc2c(ncn2COC(CO)CO)c(=O)[nH]1 [GANCICLOVIR] | 0.1 (≈ 0.392 µM) | > 100 | – | – | – |
